{"source": "paper PMC8741257", "about": "“Identification of novel non-toxic and anti-angiogenic α-fluorinated chalcones as potent colchicine binding site inhibitors” (Journal of Enzyme Inhibition and Medicinal Chemistry, 2022)", "test_system": "MMP of MGC-803 cells", "assay": "Mitochondrial membrane potential (JC-1, flow cytometry)", "type": "cell-based, human", "conditions": "72 nM, 48 h", "procedure": "There is a close relationship between mitochondria and apoptosis, and a decrease in mitochondrial membrane potential is one of the irreversible events that occur early in apoptosis cells. Therefore, effect of compound 4c on MMP of MGC-803 cells was examined by cationic JC-1 staining method and flow cytometry.\nThe cultured cells were spread in 6-well plates with about 1.5 × 10^5 cells per well and incubated overnight at 37 °C. Different concentrations of the 4c were added to the wells, and the incubation was continued for 48 h. The wells were washed twice with JC-1 staining buffer (1×) after resuspension with an appropriate amount of JC-1 staining buffer (1×), flow cytometry assays were performed according to standard procedures", "data": [{"smiles": "COc1cc(C(=O)/C(F)=C/c2c[nH]c3cc(Br)ccc23)cc(OC)c1OC", "note": "[4c, (Z)-3–(6-bromo-1H-indol-3-yl)-2-fluoro-1–(3,4,5-trimethoxyphenyl)prop-2-en-1-one]", "values": [{"measurement": "JC-1 green fluorescence intensity (lower gate)", "setting": "control 7.13", "value": 55.6, "unit": "%"}, {"measurement": "JC-1 red fluorescence intensity (upper gate)", "setting": "control 92.4", "value": 41.3, "unit": "%"}]}]}
